The results in this text go back to patent US20240408100A1, “TREATMENT METHODS FOR SUBJECTS HAVING CANCER WITH A DYSREGULATED MAPK AND/OR PI3K PATHWAY” (TAIHO PHARMACEUTICAL CO., LTD., priority 2021, published 2024).

One data set deals with NF1 mutant cell lines. Briefly: growth inhibition assay, summary over the panel. It is filed as cell-based. As to conditions: Homo sapiens; NF1 mutant cell lines except for MDA-MB-231 cells; read-out: IC50 value. An excerpt:
In order to investigate the growth inhibitory effect of Compound (1) in NF1 mutant cancer cell lines, the IC50 values of growth inhibition assay were obtained and compared then in Table 2.
In this experiment, to compare the growth inhibitory effect of Compound (1) with those of MAPK and PI3K signaling inhibitors, the IC50 values of trametinib (as a MEK inhibitor), and Alpelisib (as a PI3K inhibitor) were obtained and compared.

In the next data set the test system is AsPC-1. In words: 3-day growth inhibition assay. The class given is cell-based. As to conditions: Homo sapiens, ASPC1; AsPC-1 (Pancreas), KRAS p.G12D; read-out: Growth inhibition (IC50: nmol/L). The procedure: (§1) The IC50 values for each compound in cell lines used in a series of animal experiments evaluating the antitumor effects of Compound (1) on KRAS mutant tumor xenografts were determined by a 3-day growth inhibition assay (Table 7).

For the next data set, the system named is LS180. Briefly: 3-day growth inhibition assay. As to conditions: Homo sapiens; LS180 (Colon), KRAS p.G12D, PIK3CA p.H1047R, PTEN p.I67K; read-out: Growth inhibition (IC50: nmol/L). The class given is cell-based. The method, then: as §1
The subject of another data set is LU65. In words: 3-day growth inhibition assay. The class given is cell-based. To be noted: Homo sapiens, Lu-65; LU65 (NSCLC), KRAS p.G12C; read-out: Growth inhibition (IC50: nmol/L). The method, then: as §1
The test system of the next data set is SW1573. In words: 3-day growth inhibition assay. The class given is cell-based. To be noted: Homo sapiens; SW1573 (NSCLC), KRAS p.G12C, PIK3CA p.K111E; read-out: Growth inhibition (IC50: nmol/L). The procedure:
as §1

For another data set, the system named is PTEN-mutated HEC-6 cells. In words: dose-dependent apoptosis induction. The class given is cell-based, human. To be noted: HEC-6, 48 hour, compared to control.
For data set [1], the system named is AsPC-1 human pancreatic tumor xenografts. To be noted: for T/C ratio (%): Day 22; for Tumor volume (mm^3) Day 22 Mean ± SE: qd Day 1-21, po.
Description: All treatments were administered every day by oral gavage. The tumor volumes and body weights of animals were recorded.

Read-outs that look alike come from different tables or passages of the source.

Consider `CC(C)(C)NCCNc1ccc(-c2nnc(C(F)(F)F)o2)nc1C1CCN(c2ncnc3c2C(C)(C)C(=O)N3)CC1` [Compound (1), 4-(4-(3-((2-(tert-butylamino)ethyl)amino)-6-(5-(trifluoromethyl)-1,3,4-oxadiazol-2-yl)pyridin-2-yl)piperidin-1-yl)-5,5-dimethyl-5H-pyrolo[2,3-d]pyrimidin-6(7H)-one], for which the IC50 was below 1 µM in the data set with NF1 mutant cell lines; 184 nmol/L in the data set on AsPC-1; 316 nmol/L in the data set on LS180; 92.9 nmol/L in the data set on LU65; 139 nmol/L in the data set on SW1573. Moreover, the “levels of cleaved caspase-3 and cleaved PARP” value with PTEN-mutated HEC-6 cells is “increased cleaved caspase-3 and cleaved PARP in a concentration dependent manner”. In addition, the Number of deaths in data set [1] (40 mg/kg/day) and in data set [1] (80 mg/kg/day) was 0 throughout. In addition, the figures for the “T/C ratio (%)” value in data set [1] (40 mg/kg/day) and in data set [1] (80 mg/kg/day) were 91% and 69%, respectively. Further, the figures for the “Tumor volume (mm^3) Day 22 Mean ± SE” value in data set [1] (40 mg/kg/day) and in data set [1] (80 mg/kg/day) were 860.1 ± 112.1 mm^3 and 648.0 ± 51.7 mm^3, respectively. Besides, the “weight reduction or tolerability” value in data set [1] (mouse, in vivo) is listed as “no significant changes in weight reduction or tolerability”.
